Where two headings read alike, the source gives them in different places.
Biological target: T1, CIII2CIV2 (Complex III2IV2, cytochrome bcc-aa3 supercomplex) (Mycolicibacterium smegmatis, UniProt A0R052+I7GD61)
T1 construct: gene MSMEG_4263; CIII2CIV2 in IMVs from strain QcrB-3×FLAG (3×FLAG tag at the C terminus of the QcrB subunit); with other subunits of the CIII2CIV2 supercomplex
Assay: succinate-driven acidification of inverted membrane vesicles (ACMA fluorescence); no inhibition of ATP-driven acidification
Format: biochemical

Row | Structure (SMILES) | IC50 (read-out: IC50) [nM] | IC50 [nM]
1 | Cc1c(OCC(F)(F)F)ccnc1CSc1nc2ccccc2[nH]1 [LPZS, lansoprazole sulfide] | ~860 | –
2 | CCc1nc2ccc(Cl)cn2c1C(=O)NCc1ccc(N2CCC(c3ccc(OC(F)(F)F)cc3)CC2)cc1 [Q203, telacebec] | – | ~140
